Two molecules from publication PMC7730263, “Function and Regulation of the Pyruvate Transporter CstA in Escherichia coli” (International Journal of Molecular Sciences, 2020) can be followed below.

One series addresses T1, CstA (CstA-6His) (Escherichia coli, UniProt P15078).
T1 construct: full-length, 701 residues, 6His tag, from plasmid pBAD24-cstA6H (uninduced) in intact E. coli MG1655 ΔbtsT ΔcstA ΔyhjX cells; inner membrane protein, TC# 2.A.114
Kind of series: competition with […]pyruvate uptake into intact cells, rapid filtration. Type of series: cell-based. Particulars: 1 mM competitor against 10 µM [14C]pyruvate; Tris/MES pH 7.5, 5 mM MgCl2, 15 °C; competitor for the pyruvate site.

Substrate in series [1]: CC(=O)C(=O)O
Kind of series: cells, lysate or membranes. Particulars: labelled compound, intact cells of 3Δ mutant with p-cstA, Tris/MES pH 7.5, 5 mM MgCl2, 15 °C, background of 3Δ mutant subtracted, proton-gradient driven. The format is cell-based, Escherichia coli.

As to `O=C(O)C(=O)CBr` [Br-pyruvate], the “competition with [14C]pyruvate uptake into intact cells, rapid filtration” value at CstA (CstA-6His) is “Only pyruvate itself or Br-pyruvate (a synthetic analogue) were found to act as competitors”.

B1: CstA (CstA-6His) (Escherichia coli K-12) (protein)
chain: MNKSGKYLVWTVLSVMGAFALGYIALNRGEQINALWIVVASVCIYLIAYRFYGLYIAKNVLAVDPTRMTPAVRHNDGLDYVPTDKKVLFGHHFAAIAGAGPLVGPVLAAQMGYLPGMIWLLAGVVLAGAVQDFMVLFVSTRRDGRSLGELVKEEMGPTAGVIALVACFMIMVIILAVLAMIVVKALTHSPWGTYTVAFTIPLALFMGIYLRYLRPGRIGEVSVIGLVFLIFAIISGGWVAESPTWAPYFDFTGVQLTWMLVGYGFVAAVLPVWLLLAPRDYLSTFLKIGTIVGLAVGILIMRPTLTMPALTKFVDGTGPVWTGNLFPFLFITIACGAVSGFHALISSGTTPKMLANEGQACFIGYGGMLMESFVAIMALVSACIIDPGVYFAMNSPMAVLAPAGTADVVASAAQVVSSWGFSITPDTLNQIASEVGEQSIISRAGGAPTLAVGMAYILHGALGGMMDVAFWYHFAILFEALFILTAVDAGTRAARFMLQDLLGVVSPGLKRTDSLPANLLATALCVLAWGYFLHQGVVDPLGGINTLWPLFGIANQMLAGMALMLCAVVLFKMKRQRYAWVALVPTAWLLICTLTAGWQKAFSPDAKVGFLAIANKFQAMIDSGNIPSQYTESQLAQLVFNNRLDAGLTIFFMVVVVVLALFSIKTALAALKDPKPTAKETPYEPMPENVEEIVAQAKGAH
notes: full-length, 701 residues, 6His tag, from plasmid pBAD24-cstA6H (uninduced) in intact E. coli MG1655 ΔbtsT ΔcstA ΔyhjX cells; inner membrane protein, TC# 2.A.114
As to B1, in series [1], the Km is 242 µM.
